Values after ≈ are worked out from the molar mass of the structure shown. Read-outs that look alike come from different tables or passages of the source.
What was measured:
[1] = system: S. aureus (MRSA; methicillin-resistant strain); set-up: method as in PMID 22494050; details: cited from earlier work
[2] = system: HepG2 liver cancer; assay: MTT cytotoxicity assay, HepG2; assay type: cell-based, human; details: Homo sapiens, HepG2 cell line, 72 h, mean ± s.d., three replicates
Description: (§1) The cytotoxic activities against the cancer cell lines KB epidermal carcinoma, A549 lung cancer, HepG2 liver cancer and MCF-7 breast cancer, as well as the healthy cell line HEK293 embryonic kidney cells, were determined using the 3-(4,5-dimethylthiazol-2-yl)-2,5-diphenyltetrazolium bromide (MTT) assay. Briefly, cell lines were grown into log phase at 37°C, 5% CO2 in DMEM-Dulbecco's modified Eagle's medium and 10% fetal bovine serum. A concentration of 1 × 10^4–3 × 10^4 cells ml^−1 was prepared depending on the cell line used for the experiment by adding 10 µl of the sample and 190 µl of the cell suspension, followed by incubation under standard conditions. After 72 h of culture, 10 µl of MTT (5 mg ml^−1) was added and incubated for 4 h. Dimethyl sulfoxide (100 µl) was added to dissolve formazan crystals and the density was measured at 540 nm using a BioTek spectrophotometer. The inhibition of cell growth was expressed as IC50 (the half-maximal inhibitory concentration) value. Ellipticine was used as reference.

[3] = system: Enterococcus (VRE; vancomycin-resistant strain); set-up: method as in PMID 22494050; details: cited from earlier work
[4] = system: Salmonella enterica; assay: Anti-microbial activity assay, S. enterica; assay type: cell-based
Description: (§2) Bacterial and fungal strains (Bacillus subtilis, Staphylococcus aureus, Lactobacillus fermentum, Escherichia coli, Pseudomonas aeruginosa, Salmonella enterica and Candida albicans) were activated on TSA (Tryptic Soy Agar) and SA (Sabouraud–4% dextrose agar) media, respectively. Before the experiment, the microbial strains were grown in the corresponding liquid media at a concentration of approximately 5 × 10^5 CFU ml^−1 for bacteria and 1 × 10^3 CFU ml^−1 for fungi. The microbial suspension (190 µl) was mixed with 10 µl of the test sample, which was serially diluted twofold, and the microplate was incubated at 37°C for 16–24 h.

[5] = system: T89G cells; set-up: method as in PMID 34896543; details: T89G glioma cells; read-out: IC50, cell survival; cited from earlier work
[6] = system: Lactobacillus fermentum; assay: Anti-microbial activity assay, L. fermentum; assay type: cell-based; details: L. fermentum
Description: as §2

[7] = system: Pseudomonas aeruginosa; assay: Anti-microbial activity assay, P. aeruginosa; assay type: cell-based
Description: as §2

[8] = system: U251 cells; set-up: method as in PMID 34896543; details: U251 glioma cells; read-out: IC50, cell survival; cited from earlier work
[9] = target: T1, α-glucosidase (Saccharomyces cerevisiae, UniProt P53341); assay: Alpha-glucosidase inhibitory assay; assay type: biochemical
T1 construct: purchased Sigma
Description: Beta-mangostin and α-mangostin were purchased from Chengdu Biopurify Phytochemicals, Ltd. Recombinant Escherichia coli (BL21 (DE3)) strains were kindly provided by Prof. Jae Kyung Sohng, Sun Moon University, Korea. The cell lines and microorganisms were derived from the American Type Culture Collection (ATCC). α-Glucosidase (CAS no. 900-42-7, Sigma) was from Saccharomyces cerevisiae. All chemicals were of analytical grade and available.
The α-glucosidase inhibitory activity assay was conducted using a reaction mixture containing phosphate buffer (100 mM; pH 6.8), p-nitrophenyl-α-D-glucopyranoside (pNPG) (2.5 mM) and samples at various concentrations. The reactions were initiated by adding α-glucosidase (0.2 U ml^−1), incubated at 37°C for 30 min and quenched by adding Na2CO3 (50 mM). The absorbance of the reaction was determined using a BioTek instrument at a wavelength of 410 nm (A).

[10] = system: Candida albicans; assay: Anti-microbial activity assay, C. albicans; assay type: cell-based
Description: as §2

[11] = system: HeLa cervical cancer cells; set-up: method as in PMID 26781450; details: cited from earlier work
[12] = system: KB, MCF-7, A549, HepG2, HEK293 cell lines; assay: MTT cytotoxicity assay, range over all tested cell lines; assay type: cell-based, human; details: Homo sapiens; range over all tested cell lines, MTT, 72 h
Description: as §1

[13] = system: MCF-7 cell line; set-up: method as in doi:10.1016/j.jff.2013.10.018; details: cited from earlier work
[14] = system: A549 lung cancer; assay: MTT cytotoxicity assay, A549; assay type: cell-based, human; details: Homo sapiens; A549 cell line, MTT, 72 h, mean ± s.d., three replicates; read-out: IC50
Description: as §1

[15] = target: AChE (Homo sapiens, UniProt P22303); assay: Acetylcholinesterase inhibitory activity assay; assay type: biochemical; details: AChE 0.25 IU ml^−1, ATCI/DTNB, mean ± s.d., three replicates
Description: For the assay, acetylthiocholine iodide (ATCI) was used as a substrate for the reaction and 5,5′-dithiobis-(2-nitrobenzoic acid) (DTNB) was used to measure AChE activity. The reaction (200 µl) on a 96-well plate was performed by mixing Tris–Cl buffer (pH 8.0), tested sample in a twofold serial dilution, AChE (0.25 IU ml^−1) and incubating at 25°C, 15 min before adding 2.4 mM DTNB and 2.4 mM ATCI.

[16] = system: C6 cells; set-up: method as in PMID 34896543; details: C6 glioma cells; read-out: IC50, cell survival; cited from earlier work
[17] = target: α-glucosidase; details: ref 44; read-out: IC50, α-glucosidase inhibitory activity; cited from earlier work
[18] = system: HeLa and SiHa cells; details: cited from earlier work
[19] = system: Escherichia coli; assay: Anti-microbial activity assay, E. coli; assay type: cell-based
Description: as §2

T1 sequence (P53341 whole entry): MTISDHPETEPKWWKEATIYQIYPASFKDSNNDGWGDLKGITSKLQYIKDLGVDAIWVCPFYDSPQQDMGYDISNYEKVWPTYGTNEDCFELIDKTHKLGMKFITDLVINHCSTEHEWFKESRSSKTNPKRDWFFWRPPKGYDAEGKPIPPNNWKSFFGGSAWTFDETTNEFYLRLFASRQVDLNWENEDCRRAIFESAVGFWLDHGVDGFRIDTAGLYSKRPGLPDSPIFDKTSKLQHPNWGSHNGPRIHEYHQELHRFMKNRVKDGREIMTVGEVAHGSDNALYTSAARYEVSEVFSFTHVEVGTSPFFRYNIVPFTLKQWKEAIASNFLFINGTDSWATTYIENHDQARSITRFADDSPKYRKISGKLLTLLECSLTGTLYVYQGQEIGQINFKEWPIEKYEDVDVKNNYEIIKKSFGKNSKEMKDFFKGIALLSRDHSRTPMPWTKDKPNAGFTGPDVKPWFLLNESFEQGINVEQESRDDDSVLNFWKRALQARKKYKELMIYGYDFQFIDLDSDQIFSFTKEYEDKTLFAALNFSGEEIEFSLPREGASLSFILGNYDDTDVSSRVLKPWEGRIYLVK
AChE, sequence (P22303 32-614): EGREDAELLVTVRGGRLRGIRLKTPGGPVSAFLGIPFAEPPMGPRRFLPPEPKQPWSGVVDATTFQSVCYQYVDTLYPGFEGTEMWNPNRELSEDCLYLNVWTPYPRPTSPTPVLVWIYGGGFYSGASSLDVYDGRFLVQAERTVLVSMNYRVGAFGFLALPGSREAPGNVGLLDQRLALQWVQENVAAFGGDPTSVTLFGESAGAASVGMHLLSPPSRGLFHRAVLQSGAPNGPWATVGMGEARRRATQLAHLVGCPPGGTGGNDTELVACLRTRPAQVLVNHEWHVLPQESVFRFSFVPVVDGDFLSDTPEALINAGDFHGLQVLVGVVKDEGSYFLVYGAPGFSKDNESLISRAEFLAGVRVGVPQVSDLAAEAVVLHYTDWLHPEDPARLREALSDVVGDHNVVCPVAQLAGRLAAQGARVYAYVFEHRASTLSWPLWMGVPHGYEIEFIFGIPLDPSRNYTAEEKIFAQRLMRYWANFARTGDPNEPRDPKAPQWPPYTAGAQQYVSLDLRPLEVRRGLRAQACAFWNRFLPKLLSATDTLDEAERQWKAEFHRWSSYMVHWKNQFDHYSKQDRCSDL

## COc1cc2oc3cc(O)c(OC)c(CC=C(C)C)c3c(=O)c2c(O)c1CC=C(C)C [β-mangostin]
[1]
  MIC: > 200 µg/mL
[2]
  IC50: 18.9 ± 7.6 µM
[3]
  MIC: > 200 µg/mL
[4]
  IC50: > 32 µg/mL
  MIC: > 32 µg/mL
[5]
  IC50: 10.3 µM
[6]; read-out: IC50
  IC50: 0.18 ± 0.01 µg/mL (≈ 0.424 µM)
[6]; read-out: MIC
  MIC: 0.5 µg/mL (≈ 1.18 µM)
[7]
  MIC: greater than 32 μg ml^−1
[7]; Pseudomonas aeruginosa
  IC50: > 32 µg/mL
[7]; Pseudomonas aeruginosa, read-out: MIC
  MIC: > 32 µg/mL
[8]
  IC50: 5.8 µM
[9]
  IC50: 27.6 ± 4.6 µM
[9]; compared with the positive control acarbose
  inhibitory potency ratio: 7.55
[10]
  MIC: greater than 32 μg ml^−1
[10]; Candida albicans, read-out: IC50
  IC50: > 32 µg/mL
[10]; Candida albicans, read-out: MIC
  MIC: > 32 µg/mL
[11]
  IC50: 27.2 µM
[12]
  IC50: 15.4 to 21.1 µM
[13]; MCF-7, 24 h treatment
  IC50: 26 µM
[13]; MCF-7, 48 h treatment
  IC50: 16.5 µM
[14]
  IC50: 15.4 ± 5.1 µM
[15]
  IC50: 2.17 ± 0.18 µM
[16]
  IC50: 4.8 µM
[17]
  IC50: 14.4 µM
[18]
  cytotoxicity or cell cycle suppression: did not cause cytotoxicity or cell cycle suppression
[19]
  MIC: greater than 32 μg ml^−1
[19]; Escherichia coli
  IC50: > 32 µg/mL
[19]; Escherichia coli, read-out: MIC
  MIC: > 32 µg/mL
